In US10172815B2, “Targeted treatment of anerobic cancer” (UNIVERSITY HOSPITALS CLEVELAND MEDICAL CENTER, priority 2013, dated 2019):
Values joined by “and” are separate entries in the source; they are usually repeats but may differ in a detail not shown here. Equal values may be shown once.

Columns and labels:
Ki67 = experiment: IHC stain for Ki67 proliferation marker in tumor tissue; format: in vivo, athymic nude mice; conditions: after 3-week therapy, mean±SD
Protocol: Once the final DCE-MRI scans were complete at the end of the therapy, the mice were intravenously injected with 60 mg/kg of pimonidazole, an established marker for the detection of tissue hypoxia. After one hour following the pimonidazole staining, the tumors from these mice were resected for further biological analysis. Half of each tumor that was collected was snap-frozen in liquid nitrogen for western blot, while the other half was sliced into thin sections and formalin-fixed/paraffin-imbedded for immunohistochemistry (IHC) staining. For western blot, cell lysates from the frozen tissue were prepared by homogenizing entire tumor tissues in RIPA lysis buffer supplemented with a Halt protease inhibitor cocktail (Thermo Fisher Scientific). […] Image J software was utilized to quantify the relative protein expression of HIF-1α from the blots by calculating the total pixel intensity from each protein band, and then normalizing these signals with its corresponding β-actin stain. […]
Despite the fact that bumetanide inhibited angiogenesis and induced vascular regression, the therapy was not able to slow down the tumor growth rate over the course of the study. […] A Ki67 index was calculated by determining the percentage of nuclei in a given area of the tissue expressed this factor.

N1-S1 hepatoma = experiment: Additional comparison study, hepatocellular rat model, TAE combined with anti-glycolytic agents (Example 2); format: in vivo, Sprague Dawley rats; conditions: over four weeks
Protocol: To determine if anti-glycolytic agents (AG) combined with transarterial embolization (TAE) improves treatment of an N1-S1 tumor model implanted in Sprague-Dawley rat livers. The animal experiments were approved by the Institutional Animal Care and Use Committee. […] The agents were slowly injected within 2 minutes. […] Tumor volume (V) was calculated by the formula: V=0.5*L*W*H. Relative tumor volume after treatment was calculated as the percentage of pre-treatment tumor volume. Kruskal-Wallis test with Minitab 16 was used to compare the difference of relative tumor volume between 4 groups on each observation time point.

HIF-1α = experiment: Western blot of HIF-1α in tumor tissue; format: in vivo, athymic nude mice; conditions: after 3 weeks of therapy, vs saline control
Protocol: (§1) Once the final DCE-MRI scans were complete at the end of the therapy, the mice were intravenously injected with 60 mg/kg of pimonidazole, an established marker for the detection of tissue hypoxia. After one hour following the pimonidazole staining, the tumors from these mice were resected for further biological analysis. Half of each tumor that was collected was snap-frozen in liquid nitrogen for western blot, while the other half was sliced into thin sections and formalin-fixed/paraffin-imbedded for immunohistochemistry (IHC) staining. For western blot, cell lysates from the frozen tissue were prepared by homogenizing entire tumor tissues in RIPA lysis buffer supplemented with a Halt protease inhibitor cocktail (Thermo Fisher Scientific). […] The blots were blocked for 1 hr and then stained overnight at 4° C. with primary antibodies for HIF-1α and β-actin, the latter of which serving as the housekeeper control. Image J software was utilized to quantify the relative protein expression of HIF-1α from the blots by calculating the total pixel intensity from each protein band, and then normalizing these signals with its corresponding β-actin stain. Sections of the formalin-fixed tissue were stained with the antibodies for CD31 and the Ki67 nuclear proliferation marker. They were also stained with a primary antibody for the detection of the pimonidazole hypoxia marker. […]

[1] = test system: HT29 colon cancer xenografts; experiment: DCE-MRI with GODP, AATH model, tumor vascularity; format: in vivo, athymic nude mice; conditions: 3-week time point; 10 mg/kg i.p. daily; entire tumor; mean±SD
Text: (§2) Dynamic contrast-enhanced (DCE) MRI is a non-invasive imaging technique that is able to quantify the anatomical and physiological progression of tumor angiogenesis in response to a variety of different cancer therapies. In order to allow for the safe use of macromolecular contrast medium, a novel polydisulfide-based agent, poly([(Gd-DOTA)-DETA]-co-DTBP) (GODP) was designed, which initially starts as a macromolecular agent during an DCE-MRI protocol, and is then gradually degraded by endogenous thiols in the reductive environment of the bloodstream to improve renal clearance. In this study, two groups of 3 mice, bearing flank HT29 colon cancer xenografts, were treated daily with either bumetanide or saline for a total of 3 weeks. DCE-MRI was performed before and after the start of treatment on a weekly basis, and the collected was analyzed using the adiabiatic approximation to the tissue homogeneity (AATH) model. IHC and western blot analysis was performed to study the changes in CD31, VEGF, and tissue hypoxia.
The anti-angiogenic effects of bumetanide were investigated in a mouse model bearing subcutaneous HT29 colon adenocarcinoma xenografts. HT29 cells were initially cultured in McCoy's 5A growth media (ATCC), supplemented with 10% FBS, […] of streptomycin, and 100 units/mL of penicillin (Invitrogen). A total of 1×10^6 cells were then inoculated into athymic nude mice in a 250 μL volume of Matrigel (BD Biosciences). Before the start of treatment, tumors were allowed to grow for 10 days, until they were approximately 0.5 cm in diameter. This study comprised of 2 groups of 3 mice, one of which was treated with bumetanide, and the other with a saline control. […] Tumor growth was measured at several time points during the therapy with a caliper. Volumes were calculated using the formula […], where D1 and D2 were two diameters measured along perpendicular axes of the tumor lesion.
Changes in the tumor vascularity were monitored during the treatment by DCE-MRI. […]

CD31 = experiment: IHC stain for CD31 in tumor tissue; format: in vivo, athymic nude mice; conditions: after 3-week therapy, tumor periphery and core, vs saline control
Protocol: as §1

[2] = test system: HT29 colon adenocarcinoma xenografts; experiment: Tumor growth measured with a caliper; format: in vivo, athymic nude mice; conditions: any point during the 3-week administration period
Protocol: The anti-angiogenic effects of bumetanide were investigated in a mouse model bearing subcutaneous HT29 colon adenocarcinoma xenografts. HT29 cells were initially cultured in McCoy's 5A growth media (ATCC), supplemented with 10% FBS, […] of streptomycin, and 100 units/mL of penicillin (Invitrogen). A total of 1×10^6 cells were then inoculated into athymic nude mice in a 250 μL volume of Matrigel (BD Biosciences). Before the start of treatment, tumors were allowed to grow for 10 days, until they were approximately 0.5 cm in diameter. This study comprised of 2 groups of 3 mice, one of which was treated with bumetanide, and the other with a saline control. The drug and saline control were injected intraperitoneally on a daily basis for 3 weeks, with a bumetanide dose of 10 mg/kg. All mice were sacrificed on day 21 of the treatment regimen. Tumor growth was measured at several time points during the therapy with a caliper. Volumes were calculated using the formula […], where D1 and D2 were two diameters measured along perpendicular axes of the tumor lesion.

VEGF = experiment: Western blot and IHC of VEGF in tumor tissue; format: in vivo, athymic nude mice; conditions: after 3 weeks of therapy; western blot; vs saline control
Text: as §2, with “hypoxia. […] Image J software was utilized to quantify the relative protein expression of HIF-1α from the blots by calculating the total pixel intensity from each protein band, and then normalizing these signals with its corresponding β-actin stain. […]” for “hypoxia.”

[3] = test system: HT29 colon cancer xenografts; experiment: Pimonidazole staining of tumor hypoxia; format: in vivo, athymic nude mice; conditions: after 3-week therapy; vs saline control
Protocol: as §1

Compound: CCCCNc1cc(C(=O)O)cc(S(N)(=O)=O)c1Oc1ccccc1 [bumetanide, 3-butylamino-4-phenoxy-5-sulfamoyl-benzoic acid]
- Ki67 index (percentage of nuclei expressing Ki67) (Ki67): ~24.7±4.51%
- relative tumor volume comparing the different treatments (FIG. 25) (N1-S1 hepatoma): effective at reducing tumor volume
- HIF-1α expression greater than in control tumors (HIF-1α): 59.1% and 59.2%
- average decrease in Fp (blood flow rate) between pre- and post-treatment levels [1]: 71.2±8.01%
- average reduction in PS (permeability-surface area product) from pre-treatment level [1]: 72.2±9.26%
- average reduction in Vp (fractional plasma volume) from pre-treatment level [1]: 75.6±8.97%
- CD31 expression (CD31): significant decrease
- tumor size versus saline control [2]: no significant difference
- VEGF protein levels lower than in control tumors (VEGF): 42.9%
- tumor hypoxia (pimonidazole staining intensity) [3]: increase

Compound: O=C(O)/C=C/c1ccc(O)c(O)c1 [caffeic acid]
- relative tumor volume comparing the different treatments (FIG. 25) (N1-S1 hepatoma): effective at reducing tumor volume

Compound: COc1cc(/C=C/C(=O)O)ccc1O [ferulic acid]
- relative tumor volume comparing the different treatments (FIG. 25) (N1-S1 hepatoma): effective at reducing tumor volume
